Assay [1] relates to T18 murine breast tumours. The assay is described as follows: Test (d): in vivo growth delay of T18 tumours. Details: species or system Balb/c mice. As to conditions: single dose of approximately 50 mg/kg intraperitoneally. The source says:
(d) An in vivo assay in a group of Balb/c mice which determines the ability of a test compound to delay the growth of T18 murine breast tumours. The detailed methodology was as follows:
T18 murine breast tumour tissue was routinely maintained by animal to animal passage. To prepare a batch of tumours for an experiment, tumour tissue was removed from several donor Balb/c mice and placed in saline. Outer tissue was removed and healthy looking regions of tumour were cut into approximately 1 mm pieces and implanted subcutaneously by trocar into the left flanks of anaesthetised female Balb/c mice. After 2-3 weeks, most of the implants had grown to approximately 8 mm in diameter. The animals were placed randomly into groups of 6-7, rejecting any with very large, or small, tumours. Each test compound was dissolved in DMSO and diluted with Cremophor EL followed by saline, to give a 1:1:3 mixture of DMSO, Cremophor EL and saline. Each test compound was administered by the intraperitoneal route as a single bolus dose (0.1 ml per 10 g body weight of each animal). Control animals received vehicle alone. All mice were weighed daily and the dimensions (length and width) of each tumour were measured every 2-3 days using vernier calipers. […] Growth curves were constructed and the effect of treatment was assessed using a growth delay endpoint.

In assay [2] the test system is T18 murine breast cancer cells. Nature of the assay: Test (b): growth inhibition of T18 cells in culture under oxic conditions (MTT endpoint). The class given is cell-based. The note with it: Mus musculus, 2 hours treatment, 90% air and 10% CO2, grown on for 6 days. The method, then:
(b) An in vitro assay which determines the ability of a test compound to inhibit the growth of T18 murine breast cancer cells in cell culture under oxic conditions. The cells were grown in monolayer in 96 well plates and treated with compounds for 2 hours under an atmosphere of 90% air and 10% CO2. The cells were then grown on for 6 days at which time the extent of proliferation was assessed using a 3-(4,5-dimethylthiazol-2-yl)-2,5-diphenyltetrazolium bromide (MTT) endpoint. The test is similar to that described in J. Immunological Methods, 1983, 65, 55-63. The detailed methodology was as follows.
T18 murine breast tumour cells (derived from a spontaneous mammary tumour in the Balb/c mouse colony at Zeneca Pharmaceuticals, Mereside, Macclesfield, UK) were harvested from an exponentially growing monolayer culture. The cells were counted, diluted in RPMI 1640 culture medium (Gibco BRL, Life Technologies, Paisley, UK; supplemented with 15% foetal calf serum, glutamine, pyruvate, penicillin and streptomycin), and transferred to 96 well plates at 500 cells per 50 μl per well. […] The supernatant culture medium containing excess MTT was removed and DMSO (100 μl) was added to solubilise the formazan, the concentration of which was measured by determining the optical density at 540 nm. […]

Assay [3] has as its system spheroidal aggregates of EMT6 murine breast cancer cells. The assay is described as follows: Test (c): growth inhibition of spheroidal aggregates of EMT6 cells in oxygenated culture medium. It is filed as cell-based. The note with it: Mus musculus, 2 hours treatment, stasis of spheroid growth during 2-3 weeks, read-out: stasis ED50. The method, then:
(c) An in vitro assay which determines the ability of a test compound to inhibit the growth in an oxygenated culture medium of spheroidal aggregates (˜400 microns in diameter) of EMT6 murine breast cancer cells. As the oxygen diffusion distance through tissue is approximately 120-150 microns, such spheroids have a chronically hypoxic central population of cells and a well oxygenated outer layer of cells. The multicellular spheroids were treated with test compounds for 2 hours as a well oxygenated suspension culture. The spheroids were subsequently washed free of test compound and selected spheroids were transferred to static culture so that the effect of treatment on volume growth could be measured. […]
EMT6 murine breast cells (obtained from P. R. Twentyman, MRC Oncology and Radiotherapeutics Unit, Cambridge, UK) were harvested from exponentially growing monolayer cultures and approximately 1×10^6 cells were used to inoculate a 500 ml spinner culture vessel containing Eagles minimal essential medium (200 ml; supplemented with 10% foetal calf serum, glutamate, non-essential amino acids, penicillin and streptomycin). […] The area of each spheroid was measured using an image analyser and the 24-well plates were transferred to a CO2 incubator at 37° C. The spheroids were then re-measured every 2-3 days for up to 21 days, with fresh culture medium (250 μl) being added to each well every 3 days. […]

The source of these data is patent US6346633B1, “Anti-tumuor agents” (AstraZeneca AB, priority 1998, dated 2002).

For orientation: IC50 means the concentration that inhibits the measured activity by half. A high value points to lower potency.

In the case of `COCCC1=C(C)C(=O)C(C)=C(C(C)(C)CC(=O)Oc2ccc(N(CCCl)CCCl)cc2)C1=O` [Example 2, 4-[bis(2-chloroethyl)amino]phenyl 3-[2-(2-methoxyethyl)-3,5-dimethyl-1,4-benzoquinonyl]-3-methylbutyrate], the growth delay result in assay [1] is “approximately 12 days”. The same compound yielded an IC50 in assay [2] of 4.8 µM. Besides, the EC50 in assay [3] was around 6 µM.
